Reference: patent US20250064773A1, “TARGETING ERO1 ALPHA WITH AURONE DERIVATIVES” (West Virginia University Board of Governors on behalf of …, priority 2021, published 2025)
“Also recorded” adds a separate entry of the source.

Columns and labels:
myeloma cells lines = assay: MTT viability assay, myeloma cell lines; assay type: cell-based
PC-9 cells = assay: Soft agar clonogenic assay, PC-9; assay type: cell-based; conditions: 14 days, 3.75-15 μM
Procedure: We utilized an MTT assay to determine the potency of the compounds for inhibiting cell growth. […] We next asked whether T151742 induced inhibition of cell growth was dependent on ERO1α expression. As shown in FIG. 6C two ERO1α deleted clones in the PC-9 cell line were isolated. Using an MTT assay to determine overall cellar viability, a non-targeted control (scramble), and both ERO1α knockout clones was subjected to treatment with T151742 for 72 hours (See FIG. 6D). […] Though only slight differences were observed between T151742 and EN-460 we tested the effects of these compounds in a clonogenic assay which is a better test for inhibition of self-renewal.
FIG. 7A and FIG. 7B show 1000 cells/well were plated in a 12-well plate in triplicate with either 0.5% DMSO, T151742, or EN-460 and allowed to form colonies for 14 days. Colonies were subsequently stained with 0.01% Crystal Violet, imaged, and quantified using ImageJ. […] Colonies were stained with 0.01% Crystal Violet, imaged, and quantified using ImageJ.
Cell Lines: PC-9 cell line used was obtained from Sigma Aldrich and grown in RPMI 1640 medium with 10% fetal bovine serum and 1% penicillin/streptomycin. […] Plate was then read on the BioTek Cytation 5 at 530/590 nm. […] Plate was then read at 570 nm. […] Images were then quantified using ImageJ. […]

purified human ERO1α = target: T1, purified human ERO1α (Homo sapiens, UniProt Q96HE7, C104A/C131A/C166A); assay: Recombinant ERO1α enzyme assay (Amplex Red); assay type: biochemical; conditions: ratio of enzyme IC50 values
T1 construct: made in house
T1 sequence (Q96HE7 22-468 C104A/C131A/C166A): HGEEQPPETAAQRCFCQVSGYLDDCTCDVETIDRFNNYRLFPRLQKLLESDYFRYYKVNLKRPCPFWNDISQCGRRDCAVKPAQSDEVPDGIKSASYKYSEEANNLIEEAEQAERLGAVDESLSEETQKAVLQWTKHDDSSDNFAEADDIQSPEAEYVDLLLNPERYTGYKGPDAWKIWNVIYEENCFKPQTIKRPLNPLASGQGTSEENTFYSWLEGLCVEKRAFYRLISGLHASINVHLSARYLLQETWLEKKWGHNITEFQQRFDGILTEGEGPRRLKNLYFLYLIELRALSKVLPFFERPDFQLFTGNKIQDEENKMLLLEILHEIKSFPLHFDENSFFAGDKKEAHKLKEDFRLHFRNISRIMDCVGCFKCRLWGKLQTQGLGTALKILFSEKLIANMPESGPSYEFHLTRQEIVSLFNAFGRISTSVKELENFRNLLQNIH
Procedure: Based on previous work which established an aurone chemical class of compounds as FAD containing enzyme inhibitors^37, we evaluated sulfuretin analogs for ERO1α enzyme inhibition.
Quantification of enzymatic activity of ERO1α was performed using the Amplex Red as previously described^6.

In the case of `CN(C)c1ccc(/C=C2\Oc3cc(O)ccc3C2=O)cc1` [Compound T151742], the IC50 (myeloma cells lines) is reported as 7 to 9 µM, the “activity in clonogenicity assay (colony number)” value (PC-9 cells) is reported as “retained activity; also recorded: significantly more potent at reducing colony number” and the “fold more potent compared to EN-460” value (purified human ERO1α) is reported as “approximately 2 fold”.
